Measured values taken from ChEMBL document CHEMBL4616589, “Exploring structure-promiscuity relationships using dual-site promiscuity cliffs and corresponding single-site analogs” (Bioorg Med Chem, 2020).

Columns and labels:
[1] = target: Vascular endothelial growth factor receptor 1 (Homo sapiens, UniProt P17948); assay: Inhibition of VEGFR1 (unknown origin)
[2] = target: Tyrosine-protein kinase ABL1 (Homo sapiens, UniProt P00519); assay: Inhibition of ABL1 (unknown origin)
Sequence of Tyrosine-protein kinase ABL1 (P00519 whole entry): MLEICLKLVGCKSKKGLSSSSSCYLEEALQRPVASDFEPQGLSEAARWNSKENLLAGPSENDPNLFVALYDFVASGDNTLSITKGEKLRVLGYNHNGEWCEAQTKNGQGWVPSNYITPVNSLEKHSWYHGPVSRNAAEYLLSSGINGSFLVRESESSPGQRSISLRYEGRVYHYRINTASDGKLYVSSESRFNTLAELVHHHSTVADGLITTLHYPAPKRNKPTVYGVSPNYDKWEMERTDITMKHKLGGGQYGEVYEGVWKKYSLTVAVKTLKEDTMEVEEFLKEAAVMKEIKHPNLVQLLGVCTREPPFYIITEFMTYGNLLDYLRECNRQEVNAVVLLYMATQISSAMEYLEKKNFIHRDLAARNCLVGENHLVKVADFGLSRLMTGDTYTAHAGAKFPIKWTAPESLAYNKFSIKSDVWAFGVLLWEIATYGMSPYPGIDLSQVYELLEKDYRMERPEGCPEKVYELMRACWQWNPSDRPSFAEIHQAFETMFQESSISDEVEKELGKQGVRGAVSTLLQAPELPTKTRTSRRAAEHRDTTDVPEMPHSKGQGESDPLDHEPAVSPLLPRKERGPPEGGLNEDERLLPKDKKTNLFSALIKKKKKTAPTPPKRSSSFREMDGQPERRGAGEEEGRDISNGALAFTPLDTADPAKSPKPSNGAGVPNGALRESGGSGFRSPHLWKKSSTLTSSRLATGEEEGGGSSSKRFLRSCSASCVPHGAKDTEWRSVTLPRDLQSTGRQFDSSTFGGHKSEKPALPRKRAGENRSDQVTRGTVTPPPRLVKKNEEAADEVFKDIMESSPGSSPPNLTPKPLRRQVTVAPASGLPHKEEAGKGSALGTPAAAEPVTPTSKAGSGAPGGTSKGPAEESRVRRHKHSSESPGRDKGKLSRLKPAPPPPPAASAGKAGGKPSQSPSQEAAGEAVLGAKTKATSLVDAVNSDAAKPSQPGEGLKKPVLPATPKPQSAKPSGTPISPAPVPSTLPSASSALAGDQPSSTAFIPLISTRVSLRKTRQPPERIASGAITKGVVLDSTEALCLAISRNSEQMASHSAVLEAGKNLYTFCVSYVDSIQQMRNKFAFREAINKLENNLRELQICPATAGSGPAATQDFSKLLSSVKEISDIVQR

Sequence of Vascular endothelial growth factor receptor 1 (P17948 whole entry): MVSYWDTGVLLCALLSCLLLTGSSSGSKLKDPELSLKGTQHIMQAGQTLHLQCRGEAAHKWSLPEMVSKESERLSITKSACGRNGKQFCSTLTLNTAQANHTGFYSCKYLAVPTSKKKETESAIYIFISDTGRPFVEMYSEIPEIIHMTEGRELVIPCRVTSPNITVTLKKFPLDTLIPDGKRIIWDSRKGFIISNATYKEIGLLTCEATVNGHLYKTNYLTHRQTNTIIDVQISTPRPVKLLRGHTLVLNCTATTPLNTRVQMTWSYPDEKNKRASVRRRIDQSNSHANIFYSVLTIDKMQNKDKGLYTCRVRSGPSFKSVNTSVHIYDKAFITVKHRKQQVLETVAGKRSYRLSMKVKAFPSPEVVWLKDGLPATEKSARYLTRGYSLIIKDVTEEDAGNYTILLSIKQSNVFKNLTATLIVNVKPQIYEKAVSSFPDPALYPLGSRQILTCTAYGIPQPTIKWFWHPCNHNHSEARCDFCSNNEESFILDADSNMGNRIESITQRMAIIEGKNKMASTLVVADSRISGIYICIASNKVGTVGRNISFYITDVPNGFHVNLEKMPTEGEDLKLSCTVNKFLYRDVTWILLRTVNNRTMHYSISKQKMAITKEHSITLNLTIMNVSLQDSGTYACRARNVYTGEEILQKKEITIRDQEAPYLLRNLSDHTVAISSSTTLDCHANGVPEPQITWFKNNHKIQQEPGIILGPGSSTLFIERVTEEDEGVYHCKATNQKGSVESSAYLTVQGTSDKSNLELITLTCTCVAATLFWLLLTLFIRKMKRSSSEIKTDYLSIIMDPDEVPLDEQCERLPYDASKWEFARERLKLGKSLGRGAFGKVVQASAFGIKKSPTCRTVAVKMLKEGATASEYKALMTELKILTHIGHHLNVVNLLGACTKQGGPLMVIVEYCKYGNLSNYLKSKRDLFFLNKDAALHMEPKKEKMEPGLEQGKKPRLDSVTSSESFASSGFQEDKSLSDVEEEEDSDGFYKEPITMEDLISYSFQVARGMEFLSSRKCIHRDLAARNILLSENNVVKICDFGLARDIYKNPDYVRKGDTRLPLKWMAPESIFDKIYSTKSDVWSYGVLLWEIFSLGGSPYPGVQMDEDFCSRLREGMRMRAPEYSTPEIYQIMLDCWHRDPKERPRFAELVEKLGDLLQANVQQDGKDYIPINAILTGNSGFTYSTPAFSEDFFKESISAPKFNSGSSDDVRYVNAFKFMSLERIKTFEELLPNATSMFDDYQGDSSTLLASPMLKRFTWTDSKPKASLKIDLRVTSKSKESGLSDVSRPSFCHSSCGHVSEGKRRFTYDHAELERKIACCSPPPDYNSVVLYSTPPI

`ClC(Cn1ncc2c(NCc3ccccc3)ncnc21)c1ccccc1` (configuration not stated) gave an IC50 [1] of 1 µM.
In the case of `CCCCNc1ncnc2c1cnn2CC(Cl)c1ccccc1` (configuration not stated), the Ki [2] is reported as 2 µM.
